# Data as given in publication PMC4965013, “Open Source Drug Discovery with the Malaria Box Compound Collection for Neglected Diseases and Beyond” (PLoS Pathogens, 2016).
# How the values were obtained:
# P. falciparum = assay: EC50 listed in S2 Table Metabolomics (used to set the concentration tested); assay type: cell-based; conditions: Plasmodium falciparum; EC50 used for Factor_XEC50 in metabolomics; read-out: EC50_nM
# [1] = tested on: P. falciparum 3D7 trophozoites; assay: Metabolomic fingerprint profiling LC-MS; assay type: cell-based, Plasmodium falciparum; set-up: UDP-D-glucose / ADP-D-glucose: unit not given here; conditions: for Acetyllysine / N-acetyl-L-ornithine / N-carbamoyl-L-aspartate / NADPH / dAMP / dCMP / dTDP / dTMP / dTTP / dihydroorotate / orotate / DLH / DLS/SDL/SID / PD / PEE / PVNF / 3-phosphoglycerate / ADP-D-glucose / ATP / CDP / D-sedoheptulose-1/7-phosphate / FAD / GMP / NAD+ / NADP+ / Octoluse Bisphosphate / Pyroglutamic acid / UDP-D-glucose / UDP-D-glucuronate / UDP-N-acetyl-glucosamine / UDP / UMP / UTP / a-ketoglutarate / citrate/isocitrate / cytidine / dATP / dGMP/AMP / fumarate / glucose-1/6-phosphate / glycerate / guanine / guanosine / hypoxanthine / indole / inosine / nicotinate / ornithine / phosphoenolpyruvate / pyruvate / ribose-phosphate / sarcosine/alanine / sn-glycerol-3-phosphate / succinate/methylmalonic acid / uridine / xanthosine: S2 Table Metabolomics; for Acetyllysine: metabolite Acetyllysine; for N-acetyl-L-ornithine: metabolite N-acetyl-L-ornithine; for N-carbamoyl-L-aspartate: metabolite N-carbamoyl-L-aspartate; for NADPH: metabolite NADPH; for dAMP: metabolite dAMP; for dCMP: metabolite dCMP; for dTDP: metabolite dTDP; for dTMP: metabolite dTMP; for dTTP: metabolite dTTP; for dihydroorotate: metabolite dihydroorotate; for orotate: metabolite orotate; for DLH: peptide DLH; for DLS/SDL/SID: peptide DLS/SDL/SID; for PD: peptide PD; for PEE: peptide PEE; for PVNF: peptide PVNF; for 3-phosphoglycerate: metabolite 3-phosphoglycerate; for ADP-D-glucose: metabolite ADP-D-glucose; for ATP: metabolite ATP; for CDP: metabolite CDP; for CDP / D-sedoheptulose-1/7-phosphate / GMP / Octoluse Bisphosphate / UDP / UMP / UTP / citrate/isocitrate / dGMP/AMP / fumarate / glucose-1/6-phosphate / glycerate / guanine / guanosine / inosine / pyruvate / sarcosine/alanine / succinate/methylmalonic acid / uridine / xanthosine: change in metabolite level after compound treatment; for D-sedoheptulose-1/7-phosphate: metabolite D-sedoheptulose-1/7-phosphate; for FAD: metabolite FAD; for GMP: metabolite GMP; for NAD+: metabolite NAD+; for NADP+: metabolite NADP+; for Octoluse Bisphosphate: metabolite Octoluse Bisphosphate; for Pyroglutamic acid: metabolite Pyroglutamic acid; for UDP-D-glucose: metabolite UDP-D-glucose; for UDP-D-glucuronate: metabolite UDP-D-glucuronate; for UDP-N-acetyl-glucosamine: metabolite UDP-N-acetyl-glucosamine; for UDP: metabolite UDP; for UMP: metabolite UMP; for UTP: metabolite UTP; for a-ketoglutarate: metabolite a-ketoglutarate; for citrate/isocitrate: metabolite citrate/isocitrate; for cytidine: metabolite cytidine; for dATP: metabolite dATP; for dGMP/AMP: metabolite dGMP/AMP; for fumarate: metabolite fumarate; for glucose-1/6-phosphate: metabolite glucose-1/6-phosphate; for glycerate: metabolite glycerate; for guanine: metabolite guanine; for guanosine: metabolite guanosine; for hypoxanthine: metabolite hypoxanthine; for indole: metabolite indole; for inosine: metabolite inosine; for 2_3-Diphosphoglyceric acid / 4-phosphopantothenate / 6-phospho-D-gluconate / FMN / IMP / Pyrophosphate / Sedoheptoluse bisphosphate / cyclic-AMP / glutathione disulfide / lactate / myo-inositol: metabolite level change after treatment; for nicotinate: metabolite nicotinate; for ornithine: metabolite ornithine; for phosphoenolpyruvate: metabolite phosphoenolpyruvate; for pyruvate: metabolite pyruvate; for ribose-phosphate: metabolite ribose-phosphate; for sarcosine/alanine: metabolite sarcosine/alanine; for sn-glycerol-3-phosphate: metabolite sn-glycerol-3-phosphate; for succinate/methylmalonic acid: metabolite succinate/methylmalonic acid; for uridine: metabolite uridine; for xanthosine: metabolite xanthosine
structure (smiles),measurement,setting,value
CCOC(=O)c1cn(CC)c2cc(N3CCCCC3)c(F)cc2c1=O [MMV665827],EC50,P. falciparum,119 nM
same,Acetyllysine,[1],0.6167
same,N-acetyl-L-ornithine,[1],0.5501
same,N-carbamoyl-L-aspartate,[1],4.792
same,NADPH,[1],0.6598
same,dAMP,[1],0.7737
same,dCMP,[1],1.737
same,dTDP,[1],0.1707
same,dTMP,[1],0.8282
same,dTTP,[1],0.03923
same,dihydroorotate,[1],4.825
same,orotate,[1],-0.5812
same,DLH,[1],-0.7896
same,DLS/SDL/SID,[1],0.01567
same,PD,[1],0.7077
same,PEE,[1],-1.44
same,PVNF,[1],-0.1312
same,3-phosphoglycerate,[1],-0.02186
same,ADP-D-glucose,[1],0.2064
same,ATP,[1],0.6896
same,CDP,[1],0.1387
same,D-sedoheptulose-1/7-phosphate,[1],0.4202
same,FAD,[1],0.7349
same,GMP,[1],-0.6725
same,NAD+,[1],0.4401
same,NADP+,[1],0.5706
same,Octoluse Bisphosphate,[1],0.2411
same,Pyroglutamic acid,[1],-0.2796
same,UDP-D-glucose,[1],0.1953
same,UDP-D-glucuronate,[1],-0.1324
same,UDP-N-acetyl-glucosamine,[1],0.2567
same,UDP,[1],0.4721
same,UMP,[1],-1.447
same,UTP,[1],-1.04
same,a-ketoglutarate,[1],-0.2461
same,citrate/isocitrate,[1],-1.463
same,cytidine,[1],0.4678
same,dATP,[1],0.6493
same,dGMP/AMP,[1],0.07314
same,fumarate,[1],-0.2241
same,glucose-1/6-phosphate,[1],1.8807
same,glycerate,[1],-0.09674
same,guanine,[1],1.02
same,guanosine,[1],0.7998
same,hypoxanthine,[1],-0.3352
same,indole,[1],-0.0107
same,inosine,[1],0.5749
same,2_3-Diphosphoglyceric acid,[1],0.1079
same,4-phosphopantothenate,[1],0.2143
same,6-phospho-D-gluconate,[1],0.3355
same,FMN,[1],0.4894
same,IMP,[1],0.7697
same,Pyrophosphate,[1],-1.117
same,Sedoheptoluse bisphosphate,[1],0.6312
same,cyclic-AMP,[1],0.6768
same,glutathione disulfide,[1],0.6276
same,lactate,[1],1.255
same,myo-inositol,[1],2.498
same,nicotinate,[1],-0.197
same,ornithine,[1],0.8346
same,phosphoenolpyruvate,[1],-0.2956
same,pyruvate,[1],0.5345
same,ribose-phosphate,[1],0.3041
same,sarcosine/alanine,[1],0.4367
same,sn-glycerol-3-phosphate,[1],0.2478
same,succinate/methylmalonic acid,[1],-0.3191
same,uridine,[1],0.6011
same,xanthosine,[1],-0.8841
CCOc1ccc(-c2nonc2NC(=O)c2cccc(C)c2)cc1OCC [MMV665805],EC50,P. falciparum,117 nM
same,Acetyllysine,[1],-2.655
same,N-acetyl-L-ornithine,[1],-3.165
same,N-carbamoyl-L-aspartate,[1],-1.056
same,NADPH,[1],0.0179
same,dAMP,[1],-0.2659
same,dCMP,[1],-0.0001746
same,dTDP,[1],-0.4156
same,dTMP,[1],0.168
same,dTTP,[1],-1.808
same,dihydroorotate,[1],-0.8461
same,orotate,[1],-0.316
same,DLH,[1],-3.43
same,DLS/SDL/SID,[1],-2.376
same,PD,[1],-4.256
same,PEE,[1],-1.272
same,PVNF,[1],-3.291
same,3-phosphoglycerate,[1],-0.4238
same,ADP-D-glucose,[1],-0.07023
same,ATP,[1],-0.872
same,CDP,[1],0.2433
same,D-sedoheptulose-1/7-phosphate,[1],0.2738
same,FAD,[1],-1.216
same,GMP,[1],-1.407
same,NAD+,[1],-0.2783
same,NADP+,[1],0.09325
same,Octoluse Bisphosphate,[1],-2.628
same,Pyroglutamic acid,[1],0.2488
same,UDP-D-glucose,[1],-0.08929
same,UDP-D-glucuronate,[1],0.1004
same,UDP-N-acetyl-glucosamine,[1],-0.1333
same,UDP,[1],0.1418
same,UMP,[1],-2.433
same,UTP,[1],-1.276
same,a-ketoglutarate,[1],0.06268
same,citrate/isocitrate,[1],-0.7764
same,cytidine,[1],-0.5056
same,dATP,[1],-1.548
same,dGMP/AMP,[1],0.3312
same,fumarate,[1],-2.16
same,glucose-1/6-phosphate,[1],-1.496
same,glycerate,[1],-1.128
same,guanine,[1],-1.378
same,guanosine,[1],-1.192
same,hypoxanthine,[1],0.2303
same,indole,[1],0.06669
same,inosine,[1],-2.254
same,2_3-Diphosphoglyceric acid,[1],-1.518
same,4-phosphopantothenate,[1],-1.982
same,6-phospho-D-gluconate,[1],-1.236
same,FMN,[1],-1.528
same,IMP,[1],-1.238
same,Pyrophosphate,[1],-1.477
same,Sedoheptoluse bisphosphate,[1],-1.741
same,cyclic-AMP,[1],-2.892
same,glutathione disulfide,[1],-1.641
same,lactate,[1],-4.838
same,myo-inositol,[1],-5.977
same,nicotinate,[1],-0.4798
same,ornithine,[1],-0.1601
same,phosphoenolpyruvate,[1],0.09842
same,pyruvate,[1],-2.577
same,ribose-phosphate,[1],-0.0001746
same,sarcosine/alanine,[1],-2.25
same,sn-glycerol-3-phosphate,[1],-0.6654
same,succinate/methylmalonic acid,[1],-1.698
same,uridine,[1],-2.032
same,xanthosine,[1],0.4761
